Paper PMC7055300, “Theileria parasites subvert E2F signaling to stimulate leukocyte proliferation” (Scientific Reports, 2020)
Entries after “also recorded” stand apart in the source; their conditions may differ.

Tests used:
[1] = biological target: T1, Retinoblastoma-1 (RB) pocket domain (Homo sapiens, UniProt P06400); assay: Surface plasmon resonance binding to RB pocket domain; settings: SPR, RB pocket domain on sensor chip; sequence-scrambled peptides as negative controls
T1 construct: Recombinant, purified RB pocket domain was coupled to the surface of the sensor chip; purchased LDBiopharma HTF-1035
T1 sequence (P06400 373-771 limits assumed): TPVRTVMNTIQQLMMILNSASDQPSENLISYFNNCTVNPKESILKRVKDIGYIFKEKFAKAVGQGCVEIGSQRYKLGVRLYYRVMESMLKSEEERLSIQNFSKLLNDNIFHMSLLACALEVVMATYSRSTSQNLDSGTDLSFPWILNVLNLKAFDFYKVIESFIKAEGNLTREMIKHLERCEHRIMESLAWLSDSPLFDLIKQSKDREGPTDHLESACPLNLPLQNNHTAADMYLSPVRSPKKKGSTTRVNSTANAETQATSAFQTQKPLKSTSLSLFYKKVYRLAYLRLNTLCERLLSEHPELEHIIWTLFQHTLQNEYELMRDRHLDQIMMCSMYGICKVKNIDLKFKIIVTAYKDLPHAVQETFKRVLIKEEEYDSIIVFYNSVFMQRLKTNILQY
From the text: Since the proliferation of T. parva-infected host cells is thought to be critical for the pathogenesis of infection, we investigated whether synthesized peptides, each 9 to 19 amino acids long and containing these 15 T. parva motifs, could bind to RB (Supplementary Table 1). Surface plasmon resonance (SPR) was used to screen these peptides for specific RB1 pocket domain-binding activity. Recombinant, purified RB pocket domain was coupled to the surface of the sensor chip, and purified peptides were introduced at various concentrations to quantify kinetics if response curves indicated a detectable protein-protein interaction. Sequence-scrambled peptides were used as negative controls to exclude false-positive signals.
Immobilization of human RB1 protein to CM5 chip
Surface preparation. […]
Kinetics analysis of binding. […] The analytes (60 µl each, 0–25 µM in HBS-EP buffer with 0.05% P20) were injected into flow cell and the association of analyte and ligand were recorded respectively by surface plasmon resonance (SPR) with a Biacore T200 (Biacore, Inc., New Jersey). […]
Data analysis. Sensorgrams of the interaction generated by the instrument were analyzed using the software BIAeval 3.2 (Biacore Inc., New Jersey). […]

[2] = system: T. parva-transformed TpMD409.B2 cells; assay: Western blot of RB/E2F pathway proteins after parasite killing; format: cell-based, bovine; settings: buparvaquone 50 ng/ml
From the text: The discovery of these peptides led us to investigate the particular RB/E2F signaling components in Theileria-infected cells. Eight E2F transcription factor genes have been identified in mammals, which can be divided into two groups: activators (E2F-1, E2F-2, E2F-3a), which can bind RB, and repressors (e.g. E2F-3b, E2F-4, E2F-5), which can bind RB, p107 and p130. The balance between the activator and repressor E2Fs seems to be primarily controlled by the phosphorylation status of the associated pocket proteins to which they bind. E2F interactions with the Dimerization Partner (DP) ligands are also important for regulating E2F transcription factor activity. We used Western blot to compare the levels of RB family, E2F, and DP-1 protein between T. parva-transformed cells that were left untreated with those treated with buparvaquone to kill the parasite and induce an arrest in host cell proliferation. By comparing expression levels between the buparvaquone-treated and untreated groups, we can determine parasite-dependent changes in the expression levels of these proteins. […] These faster migrating bands likely correspond to hypophosphorylated, proliferation-suppressive forms of RB and p130, at 24 h and 48 h after treatment with buparvaquone.
Figure 2 RB/E2F signaling is activated by Theileria parasites. (a) Western blot analysis (left) of E2F-1, E2F-3 E2F-4, DP-1, pRB, and p130 expression in TpMD409B.2 cells, either left untreated (−), or treated (+) for 24 h and 48 h with buparvaquone (BQ), including band intensity quantification (right). Shown are representatives of three independent experiments. (b) E2F DNA binding activity in TpMD409B.2 cells was assayed by EMSA using gP32- labeled double-stranded oligonucleotide spanning E2F binding sites from the dhfr gene promoter. Left panel, nuclear extracts from TpMD409B.2 cells were incubated with γP32-labeled probe in absence or presence of a 100 fold molar excess of unlabeled wild type (WT), or mutated (MUT) double-stranded oligonucleotide. Binding reactions were resolved by non-denaturing polyacrylamide gel, which was processed afterwards for autoradiography. Right panel, EMSA analysis of E2F DNA binding activity in nuclear extracts from untreated, proliferating TpMD409B.2 cells (−) and TpMD409B.2 cells treated for 24 and 48 h with the parasiticidal drug buparvaquone (+). Arrows indicate E2F in complex with RB family proteins (Complexes) or free E2F protein (Free). (c) Flow cytometric analysis of BrdU incorporation and DNA content in TpMD409B.2 cells, either left untreated (control), or treated with buparvaquone for 24 h and 48 h. Shown is a representative of three independent experiments. […]

[3] = system: E2F binding sites from the dhfr gene promoter; TpMD409.B2 nuclear extracts; assay: E2F DNA binding activity by EMSA; format: cell-based, bovine; settings: buparvaquone 50 ng/ml, 24 h and 48 h
Protocol: (a) Western blot analysis (left) of E2F-1, E2F-3 E2F-4, DP-1, pRB, and p130 expression in TpMD409B.2 cells, either left untreated (−), or treated (+) for 24 h and 48 h with buparvaquone (BQ), including band intensity quantification (right). Shown are representatives of three independent experiments. (b) E2F DNA binding activity in TpMD409B.2 cells was assayed by EMSA using gP32- labeled double-stranded oligonucleotide spanning E2F binding sites from the dhfr gene promoter. Left panel, nuclear extracts from TpMD409B.2 cells were incubated with γP32-labeled probe in absence or presence of a 100 fold molar excess of unlabeled wild type (WT), or mutated (MUT) double-stranded oligonucleotide. Binding reactions were resolved by non-denaturing polyacrylamide gel, which was processed afterwards for autoradiography. […]

[4] = system: T. parva-transformed TpMD409.B2 cells; assay: Flow cytometric BrdU incorporation; format: cell-based, bovine; settings: untreated vs buparvaquone-treated, 24 h and 48 h
From the text: The discovery of these peptides led us to investigate the particular RB/E2F signaling components in Theileria-infected cells. Eight E2F transcription factor genes have been identified in mammals, which can be divided into two groups: activators (E2F-1, E2F-2, E2F-3a), which can bind RB, and repressors (e.g. E2F-3b, E2F-4, E2F-5), which can bind RB, p107 and p130. The balance between the activator and repressor E2Fs seems to be primarily controlled by the phosphorylation status of the associated pocket proteins to which they bind. E2F interactions with the Dimerization Partner (DP) ligands are also important for regulating E2F transcription factor activity. We used Western blot to compare the levels of RB family, E2F, and DP-1 protein between T. parva-transformed cells that were left untreated with those treated with buparvaquone to kill the parasite and induce an arrest in host cell proliferation. By comparing expression levels between the buparvaquone-treated and untreated groups, we can determine parasite-dependent changes in the expression levels of these proteins. […]
Figure 2 RB/E2F signaling is activated by Theileria parasites. (a) Western blot analysis (left) of E2F-1, E2F-3 E2F-4, DP-1, pRB, and p130 expression in TpMD409B.2 cells, either left untreated (−), or treated (+) for 24 h and 48 h with buparvaquone (BQ), including band intensity quantification (right). […]

[5] = system: T. annulata-infected TBL20 cells; assay: Cell proliferation, T. annulata-infected B cells (TBL20), hemacytometer count; format: cell-based, bovine; settings: T. annulata-infected TBL20, HLM006474 10 μM in DMSO, average of 3 independent experiments
Protocol: (§1) (a) TpMD409B.2 cells were transfected with E2F-luc (WT = wild-type E2F binding construct), or mutated E2F-luc constructs (labeled ‘mutated’) together with a CMV-lacZ plasmid to normalize for transfection efficiency. Luciferase and β-galactosidase activities were measured 24 hrs after transfection. E2F-luc relative luciferase activity normalized to mE2F-luc. Shown is the average of 3 independent experiments with standard deviation. BL20 or TBL20 cells were treated with (b) 1μM of penetrating peptides ([…]-K(FITC)) containing the TpGcpE LXCXE motif, or an LXNXE control ([…]-K(FITC)) or (c) E2F inhibitor or DMSO control, and then counted by hemacytometer after the indicated timepoints. Shown is the average of 3 independent experiments with standard deviation. Then, either (d) virulent Ode T. annulata-transformed macrophages, or (e) BL20/TBL20 T. annulata-transformed cells were transfected with E2F-luc plasmid (or mutated E2F-luc as in (c)) and incubated for 24 hrs at 37 °C. Then, cells were treated with penetrating peptides as in (b) for 2 hrs and luciferase activity was quantified. Data shown are representative of three independent experiments done with biological duplicates, with mean + standard deviation (*P-value < 0.05 compared to untreated; ^‡P-value < 0.05 compared to its respective BL20 control).
The TpMD409.B2 cell line is a T. parva Muguga-infected B-cell clone (B2) whose establishment, phenotypic characteristics and culture conditions have been described[25]–[27]. BL20 cells are a retrovirus-transformed B cell line isolated from an infected cow. To eliminate the parasite, cells were treated for the indicated time with buparvaquone (50 ng/ml, 1 mg/ml stock in ethanol; Sigma). To inhibit E2F activity, cells were treated for the indicated time with HLM006474 (10 μM in DMSO, Sigma), or DMSO (10μM; Sigma) as a control. The T. annulata-infected cell lines BL20 (B cell), as well as Ode (macrophage) cell lines are well described and characterized.
The amino acid sequence of RB-1 based on the parasite sequence ([…]) was synthesized. Cysteine in wild type RB1 was replaced by an Asparagine (N; in bold […]). The penetrating peptide to facilitate cell entry is underlined.

uninfected BL20 cells = assay: Cell proliferation, uninfected B cells (BL20), hemacytometer count; format: cell-based, bovine; settings: uninfected BL20, HLM006474 10 μM in DMSO, average of 3 independent experiments
Protocol: as §1, with “control). […]” for “control).”

BL20/TBL20 cells = format: cell-based, bovine; settings: HLM006474 10 μM; data not shown
Protocol: Since the LXCXE peptide can induce E2F activity, we investigated whether it could, on its own, increase bovine leukocyte proliferation. To extend our observations to T. annulata-infected leukocytes, we incubated T. annulata-infected B cells with WT or mutated LXNXE peptides and counted cell numbers at 24 h and 48 h.
The amino acid sequence of RB-1 based on the parasite sequence ([…]) was synthesized. Cysteine in wild type RB1 was replaced by an Asparagine (N; in bold […]). The penetrating peptide to facilitate cell entry is underlined. 3 different concentrations of peptides were used for 2 h to determine the minimum effective concentration (1 μM) with minimum toxic effect, which was used to perform each experiment as indicated.

Question: How did the “RB binding in words” value [1] turn out when “RDELQGVIQLLYDRYNKYI [TpMuguga_02g02355, SPR screening peptide […] with an LXXLFD motif from TpMuguga_02g02355]” was run?
Answer: bound the RB pocket domain with nanomolar affinity; also recorded: bind RB in a sequence-specific fashion

Question: Which “pRB and p130 migration” value ([2]; 24 h and 48 h, vs untreated) does the source give for CC(C)(C)[C@H]1CC[C@H](CC2=C(O)C(=O)c3ccccc3C2=O)CC1 [buparvaquone] here?
Answer: migrate faster in parasite-killed TpMD409.B2 cells than in untreated cells

Question: What about the E2F-4 protein levels ([2]; 48 h) of the same molecule?
Answer: E2F-4 levels remain unaltered

Question: And the “slower-migrating DP-1 band” value ([2]; 48 h)?
Answer: a slower-migrating DP-1 band increases

Question: What about the “E2F-1 and E2F-3 protein levels” value ([2]; after 48 h but not 24 h) of the same molecule?
Answer: E2F-1 and E2F-3 protein levels decrease

Question: What about the “E2F DNA binding activity” value [3] of the same molecule?
Answer: overall decrease in E2F DNA binding activity

Question: And the “slow and intermediate complexes bound to E2F-dependent promoter” value [3]?
Answer: increase in complexes migrating at slow and intermediate speed bound to an E2F-dependent promoter

Question: And the “proliferation, dependence on the parasite” value [4]?
Answer: Proliferation was also confirmed to be dependent on the parasite

Question: With CCOc1ccc(C(Nc2ccccn2)c2ccc3ccc(C)nc3c2O)cc1C (stereo not shown) [HLM006474, reference compound] as the molecule, how does the “proliferation with E2F inhibitor” value [5] read?
Answer: specifically reduced the proliferation of T. annulata-infected TBL20 cells

Question: What about the “proliferation with E2F inhibitor” value ([5]; listed as HLM0006474) of the same molecule?
Answer: specifically inhibit the proliferation of T. annulata-infected

Question: What about the “proliferation with E2F inhibitor” value (uninfected BL20 cells) of the same molecule?
Answer: not uninfected BL20 cells

Question: And the “proliferation with E2F inhibitor” value (uninfected BL20 cells; listed as HLM0006474)?
Answer: not uninfected bovine B cell lines

Question: What about the “dependence of the effect on cell death” value (BL20/TBL20 cells) of the same molecule?
Answer: not dependent on cell death
